Data from publication PMC4526861, “Inhibition of protein kinase C by isojacareubin suppresses hepatocellular carcinoma metastasis and induces apoptosis in vitro and in vivo” (Scientific Reports, 2015).

Experiments:
HeLa-C3 cells = tested on: HeLa-C3 cells; set-up: method as in PMID 18614188; conditions: cited from earlier work
[1] = tested on: phosphorylated c-Raf, MEK1/2 and ERK1/2; experiment: Western blot of MAPK phosphorylation, QGY-7703; format: cell-based, human; conditions: QGY-7703, 24 h
Procedure: (§1) Additional PKC targeting effects involved in the early response of major MAPK phosphorylation and the late response of HCC cell invasion and apoptosis were investigated. After 24 h of treatment with ISJ at the indicated concentrations, the total protein lysates from HCC cells were analyzed (Fig. 6). ISJ inhibited the phosphorylated, activated forms of c-Raf, MEK1/2 and ERK1/2 in the MAPK signaling pathway in both HepG2 and QGY-7703 cells (Fig. 6a). […] In contrast, E-cadherin expression was elevated, specifically at the highest concentration of ISJ (20 μM) (Fig. 6b). In addition, we analyzed several representative apoptotic proteins, including cleaved PARP (c-PARP), p53 and p21. […] These findings support our hypothesis that ISJ restrains HCC cell metastasis and induces HCC cell apoptosis by specifically inhibiting PKC.
(§2) The total membrane and cytosolic proteins were extracted using a Membrane and Cytosol Protein Extraction Kit (Beyotime). Extracted proteins from cells or animal tissues were separated by SDS-PAGE and transferred to polyvinylidene difluoride (PVDF) membranes (Bio-Rad). The PVDF membranes were blocked with 5% nonfat milk and incubated with primary antibodies overnight, followed by incubation with a donkey anti-rabbit or anti-mouse secondary antibody (IRDye 800, LI-COR, Biosciences). […] The intensity was quantitative with Quantity One software (Bio-Rad). […]

[2] = tested on: c-PARP, c-Cas3 and c-Cas9 in xenograft tumors; experiment: Histology, IHC and immunoblot of xenograft tumors; format: in vivo, BALB/c-nu nude mice; conditions: 5 mg/kg
Procedure: The total membrane and cytosolic proteins were extracted using a Membrane and Cytosol Protein Extraction Kit (Beyotime). Extracted proteins from cells or animal tissues were separated by SDS-PAGE and transferred to polyvinylidene difluoride (PVDF) membranes (Bio-Rad). The PVDF membranes were blocked with 5% nonfat milk and incubated with primary antibodies overnight, followed by incubation with a donkey anti-rabbit or anti-mouse secondary antibody (IRDye 800, LI-COR, Biosciences). The images were captured using the Odyssey Infrared Imaging System (LI-COR, Biosciences), according to the manufacturer's instructions. The intensity was quantitative with Quantity One software (Bio-Rad). To ensure equal protein loading, each membrane was stripped and reprobed with an anti-β-actin antibody. All experiments were repeated independently no less than three times.
To further confirm the antitumor activities of compound 7 and ISJ in vivo, histological analysis was performed on the hepatoma xenografts. Briefly, the samples were fixed in a 10% formalin solution, processed, embedded, sectioned and either H&E stained to reveal tumor tissue necrosis or IHC stained using antibodies against c-PARP, c-Cas3 or c-Cas9. The H&E and IHC images were obtained on a Leica DMI3000 B phase-contrast microscopy. The immunoreactive areas in the IHC images were quantified using ImagePro Plus 6.0 software (Media Cybernetics, Silver Spring, MD). The integrated optical density (IOD) values were represented as the mean ± SEM.

HepG2 xenografts = experiment: Antitumor activity in vivo, HepG2 xenograft; set-up: species or system BALB/c-nu nude mice; conditions: 5 mg/kg, tail vein injection every other day for two weeks
Procedure: Four-week-old male BALB/c-nu nude mice (15–20 g) were obtained from the Shanghai SLAC Laboratory Animal Co., Ltd. (Shanghai, China). The animals were maintained under specific pathogen-free conditions with food and water supplied ad libitum in the Laboratory Animal Center of the Second Military Medical University. All animal experiments were carried out in accordance with the Guide for the Care and Use of Laboratory Animals of the National Institutes of Health and were approved by the Committee on the Ethics of Animal Experiments of the Second Military Medical University, China.
HepG2 cells were harvested and resuspended in PBS. A total of 5 × 10^6 cells were subcutaneously injected into the right flank. Tumor volume was calculated using the following formula: V = (L × W^2)/2, where L is the length and W is the width of the tumor nodules measured with vernier calipers. Once the volume of the tumors reached 75–100 mm^3, the mice were randomly divided into three groups (n = 5). The mice were treated every other day for two weeks with tail vein injections of either vehicle (5% ethanol and 2.5% polyethylene glycol in saline), compound 7, or ISJ (5 mg/kg in the vehicle). Body weights were measured before each drug injection. After the 15th day, the mice were euthanized, and the tumors were isolated, weighed and photographed.

QGY-7703 cells = experiment: Cell proliferation assay (CCK-8), QGY-7703; format: cell-based, human
Procedure: The human HCC cell lines QGY-7703, SMMC-7721 and HepG2 and the liver cell line QSG-7701 were supplied by the Cell Resource Center, Institute of Life Sciences, Chinese Academy of Medical Science. QGY-7703, SMMC-7721 and QSG-7701 cells were cultured in 1640 medium (Gibco), and HepG2 cells were cultured in DMEM medium (Gibco) at 37 °C in moist air supplemented with 5% CO2. All media were supplemented with 10% fetal bovine serum (FBS) and 100 Units/mL of penicillin/streptomycin.
The cell viability assay was performed as previously reported using a Cell Counting Kit-8 (CCK-8; Dojindo, Kumamoto, Japan)[33][34]. The relative cell viability was presented as % inhibition and calculated using the following formula: […]

PKC = PKC activity assay (PepTag non-radioactive, HepG2 lysates); format: biochemical, human; conditions: 3 h
Procedure: The activity of PKC in HepG2 cells was assessed 3 h after the addition of compound 7 or ISJ by measuring the phosphorylation of a PKC-specific target peptide. Compared to the basal control (in the absence of any compound), PKC activity was inhibited by compound 7 and ISJ.
Figure 3 Effects of compound 7 and ISJ on PKC activity in HepG2 cells. The proteins from lysed HepG2 cells were prepared and measured for their ability to phosphorylate a PKC-specific peptide substrate (PLSRTLSVAAK) in a non-radioactive assay. (a) Lanes 1 and 2 show the negative (water only) and positive controls (with 20 ng purified PKC). Supernatants from HepG2 cells were subjected to the PKC activity assay in the absence (basal control, lane 3) or presence (lanes 4–7) of the compounds. Compound 7 (lanes 4 and 5) and ISJ (lanes 6 and 7) were added separately at 10 and 5 μM. (b) Quantification of (a); *P < 0.05 versus the basal control. Data are shown as the mean ± SD of three independent experiments.
The PKC activity assay was carried out as previously reported, according to the instructions of the PepTag non-radioactive PKC assay kit (Promega)[60]. The bands were photographed using the Syngene GBOX-iCHEMI-XR system, and the phosphorylated bands were cut out for quantification measurement at 570 nm.

[3] = tested on: MMP-9, FGFR-1, E-cadherin; experiment: Western blot of invasion-related proteins, HepG2; format: cell-based, human; conditions: HepG2, 24 h
Procedure: as §1, §2

In the case of Isojacareubin [ISJ], the “growth of HeLa-C3 cells” value (HeLa-C3 cells) is listed as “inhibited the growth”, the “phosphorylated, activated forms of c-Raf, MEK1/2 and ERK1/2” value [1] is listed as “inhibited” and the “H&E staining of xenograft tumors” value [2] is listed as “significant tissue death”. The “IHC c-PARP, c-Cas3 and c-Cas9 levels in tumors” value [2] was “upregulated expression”, the “immunoblot c-PARP, c-Cas3 and c-Cas9 levels in tumor tissue” value [2] was “increased” and the “reduction of tumor weight compared to controls” value (HepG2 xenografts) was 74.1%. The “Inhibitory Ratio (%) QGY-7703” value (QGY-7703 cells; 50 μM) was 83.69%, the IC50 (QGY-7703 cells; mean ± SD, at least three independent experiments) was 4.65 ± 0.32 µM and the “inhibition of PKC activity compared to the basal control” value (PKC; 5 μM) was 52.3%. The “inhibition of PKC activity compared to the basal control” value (PKC; 10 μM) was 77.7%, the “expression levels of MMP-9 and FGFR-1” value [3] was “markedly reduced” and the E-cadherin expression ([3]; specifically at 20 μM) was “elevated”.
